Reference: PubChem BioAssay (NCI)
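Step 1: Grow cells in 96-well plates. Step 2: Expose to compound for 48 hours at 5 concentrations. Step 3: Interpolate endpoints linearly; if unreached, use highest concentration. At the TGI there is no net growth.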

Assays:
Experiment in all cases: growth of human tumour cells (NCI), 48 h
SK-MEL-2 melanoma = system: SK-MEL-2 melanoma
T-47D breast = system: T-47D breast
SK-MEL-28 melanoma = system: SK-MEL-28 melanoma
OVCAR-8 ovarian = system: OVCAR-8 ovarian
HL-60(TB) leukemia = system: HL-60(TB) leukemia
SF-295 CNS = system: SF-295 CNS
A498 renal = system: A498 renal
HOP-62 NSCLC = system: HOP-62 NSCLC
KM12 colon = system: KM12 colon
NCI-H23 lung = system: NCI-H23 lung

Structure (SMILES): CNC(=S)N/N=C(\C)c1nc2ncccc2[nH]1
- TGI (SK-MEL-2 melanoma): > 100 µM
- TGI (T-47D breast): > 100 µM
- TGI (SK-MEL-28 melanoma): > 100 µM
- TGI (OVCAR-8 ovarian): > 100 µM
- TGI (HL-60(TB) leukemia): 52.8 µM
- TGI (SF-295 CNS): > 100 µM
- TGI (A498 renal): > 100 µM
- TGI (HOP-62 NSCLC): > 100 µM
- TGI (KM12 colon): > 100 µM

Structure (SMILES): O=C1c2ccccc2-c2nc(-c3ccccc3)cc3c2c1nc1ccccc13
- TGI (SK-MEL-2 melanoma): 51.4 µM
- TGI (T-47D breast): > 100 µM
- TGI (SK-MEL-28 melanoma): 22.9 µM
- TGI (NCI-H23 lung): 16.1 µM
- TGI (OVCAR-8 ovarian): 66.8 µM
- TGI (HL-60(TB) leukemia): 15 µM
- TGI (SF-295 CNS): 27.6 µM
- TGI (HOP-62 NSCLC): 47.2 µM
- TGI (KM12 colon): 50.3 µM

Structure (SMILES): O=c1[nH]cnc2sc(=S)c3c(c12)CCC3
- TGI (SK-MEL-2 melanoma): > 100 µM
- TGI (T-47D breast): > 100 µM
- TGI (SK-MEL-28 melanoma): > 100 µM
- TGI (NCI-H23 lung): 62.8 µM
- TGI (OVCAR-8 ovarian): > 100 µM
- TGI (HL-60(TB) leukemia): 57.6 µM
- TGI (SF-295 CNS): > 100 µM
- TGI (HOP-62 NSCLC): > 100 µM
- TGI (KM12 colon): > 100 µM

Structure (SMILES): O=C1CCC2(O)C3Cc4ccc(Oc5nnnn5-c5ccccc5)c5c4C2(CCN3CC2CC2)C1O5 (stereo unspecified)
- TGI (SK-MEL-2 melanoma): 53.1 µM
- TGI (T-47D breast): > 100 µM
- TGI (SK-MEL-28 melanoma): 30.8 µM
- TGI (NCI-H23 lung): > 100 µM
- TGI (OVCAR-8 ovarian): > 100 µM
- TGI (SF-295 CNS): > 100 µM
- TGI (A498 renal): 90.1 µM
- TGI (HOP-62 NSCLC): > 100 µM
- TGI (KM12 colon): > 100 µM

Structure (SMILES): CSc1ncc2c(n1)-c1ccccc1OC2NC(C)(C)C (stereo unspecified)
- TGI (T-47D breast): > 100 µM
- TGI (SK-MEL-28 melanoma): > 100 µM
- TGI (NCI-H23 lung): > 100 µM
- TGI (OVCAR-8 ovarian): > 100 µM
- TGI (HL-60(TB) leukemia): > 100 µM
- TGI (SF-295 CNS): > 100 µM
- TGI (A498 renal): 7.36 µM
- TGI (HOP-62 NSCLC): > 100 µM
- TGI (KM12 colon): > 100 µM

Structure (SMILES): C/C=C/[C@H]1O[C@@](O)([C@@H](C)[C@H](O)[C@H](C)[C@H]2OC(=O)/C(OC)=C/C(C)=C/[C@@H](C)[C@@H](O)[C@@H](CC)[C@@H](O)[C@H](C)C/C(C)=C/C=C/[C@@H]2OC)C[C@H](OC2CC(O)C(OC(N)=O)C(C)O2)[C@@H]1C (stereo partly specified)
- TGI (SK-MEL-2 melanoma): 3.22 µM
- TGI (T-47D breast): 2.12 µM
- TGI (SK-MEL-28 melanoma): 20.4 µM
- TGI (NCI-H23 lung): 26.7 µM
- TGI (OVCAR-8 ovarian): 21.2 µM
- TGI (SF-295 CNS): 0.893 µM
- TGI (A498 renal): 33.1 µM
- TGI (HOP-62 NSCLC): 1.11 µM
- TGI (KM12 colon): 17.4 µM

Structure (SMILES): Clc1nc(Nc2nc3ccccc3[nH]2)nc(Cl)c1Cc1ccccc1
- TGI (SK-MEL-2 melanoma): > 100 µM
- TGI (T-47D breast): > 100 µM
- TGI (SK-MEL-28 melanoma): > 100 µM
- TGI (NCI-H23 lung): > 100 µM
- TGI (OVCAR-8 ovarian): > 100 µM
- TGI (HL-60(TB) leukemia): > 100 µM
- TGI (SF-295 CNS): > 100 µM
- TGI (A498 renal): > 100 µM
- TGI (KM12 colon): > 100 µM

Structure (SMILES): CCCCc1ccc(-n2sc3ncccc3c2=O)cc1
- TGI (SK-MEL-2 melanoma): 43.9 µM
- TGI (T-47D breast): 45.7 µM
- TGI (SK-MEL-28 melanoma): 33.1 µM
- TGI (NCI-H23 lung): 41.9 µM
- TGI (OVCAR-8 ovarian): 45.7 µM
- TGI (HL-60(TB) leukemia): 6.07 µM
- TGI (SF-295 CNS): 31.2 µM
- TGI (HOP-62 NSCLC): 36.2 µM
- TGI (KM12 colon): 32.5 µM

Structure (SMILES): COc1ccc2c(c1OC)C(=O)O[C@@H]2[C@H]1c2cc3c(cc2CCN1C)OCO3
- TGI (SK-MEL-2 melanoma): > 100 µM
- TGI (T-47D breast): > 100 µM
- TGI (NCI-H23 lung): > 100 µM
- TGI (OVCAR-8 ovarian): > 100 µM
- TGI (HL-60(TB) leukemia): > 100 µM
- TGI (SF-295 CNS): > 100 µM
- TGI (A498 renal): > 100 µM
- TGI (HOP-62 NSCLC): > 100 µM
- TGI (KM12 colon): > 100 µM

Structure (SMILES): COc1cc(OC)c2c(O)c(S(=O)(=O)c3ccc(C)cc3)c(=O)oc2c1
- TGI (SK-MEL-2 melanoma): > 100 µM
- TGI (T-47D breast): > 100 µM
- TGI (SK-MEL-28 melanoma): > 100 µM
- TGI (NCI-H23 lung): > 100 µM
- TGI (OVCAR-8 ovarian): > 100 µM
- TGI (HL-60(TB) leukemia): > 100 µM
- TGI (SF-295 CNS): > 100 µM
- TGI (A498 renal): > 100 µM
- TGI (KM12 colon): > 100 µM

Structure (SMILES): C=CCC1(CC)C(=O)NC(=O)NC1=O
- TGI (SK-MEL-28 melanoma): > 100 µM
- TGI (NCI-H23 lung): > 100 µM
- TGI (OVCAR-8 ovarian): > 100 µM
- TGI (HL-60(TB) leukemia): > 100 µM
- TGI (HOP-62 NSCLC): > 100 µM
- TGI (KM12 colon): > 100 µM
